# Experimental data published in PMC8027839 (Scientific Reports, 2021).
# “Also recorded” adds a separate entry of the source.
# Legend:
# MptpA = MptpA (Mycobacterium tuberculosis, UniProt P9WIA1); test: biochemical; conditions: pNPP assay, pH 6
# MptpB = MptpB (Mycobacterium tuberculosis, UniProt I6WXK4); test: biochemical; conditions: pNPP assay, pH 6
# F. tularensis = assay type: cell-based, Francisella tularensis; conditions: 40 µM; 24 h
# [1] = Compound precipitation in enzyme assays; assay type: physicochemical; conditions: AcpA Malachite Green assay
# AcpA = AcpA (Francisella tularensis subsp. novicida, UniProt A0Q436); test: biochemical; conditions: 1 mM; read-out: inhibition of enzymatic activity of AcpA
# [2] = MTT cytotoxicity assay, MH-S; conditions: mouse, MH-S cells (SV40-transformed alveolar macrophage cell line)
# Mtb H37Rv strain = test: Mycobacterium tuberculosis infection assay in THP-1 macrophages; assay type: cell-based; conditions: resting THP-1 macrophages; 1 µM and 40 µM; 24 h and 72 h post infection
# [3] = test system: Francisella tularensis live vaccine strain (LVS); assay type: cell-based; conditions: MH-S macrophages; 40 μM; 24 h post infection
# SapM [4] = molecular target: T1, SapM (Mycobacterium tuberculosis, UniProt O53361); test: Microscale thermophoresis of SapM binding
# T1 construct: made in house; host or cells: Escherichia coli C41 (DE3)
# T1 sequence (O53361 44-299): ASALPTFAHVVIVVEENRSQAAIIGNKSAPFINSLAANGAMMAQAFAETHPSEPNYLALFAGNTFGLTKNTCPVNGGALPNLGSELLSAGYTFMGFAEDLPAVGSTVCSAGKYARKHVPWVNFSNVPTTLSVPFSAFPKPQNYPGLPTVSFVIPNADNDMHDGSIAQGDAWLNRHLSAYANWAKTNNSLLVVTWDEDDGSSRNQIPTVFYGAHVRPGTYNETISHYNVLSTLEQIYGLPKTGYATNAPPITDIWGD
# Protocol: Microscale thermophoresis (MST) was used to study the direct binding interaction of SapM with three compounds 1, 2 and 13. SapM was labelled with NTA-647nm dye which attaches to the 6-histidine tag. 100 nM NTA-647 was incubated with 200 nM SapM for 1-hour at 4 °C and then centrifuged at 20,000 rcf for 20 minutes at 4 °C in 20 mM HEPES, 200 mM NaCl pH 7.0. 10 mM compound was diluted to 500 μM in the same buffer. Binding checks were carried out with labelled SapM (5 nM) with and without 250 nM compound with LED power of 20% and a medium MST power in a Monolith Pico instrument and using standard capillaries. Binding analysis was performed with a doubling serial dilution from 250 nM with 16 dilutions and a constant concentration of 5 nM labelled SapM.
# M. bovis BCG ΔsapM = assay type: cell-based; conditions: 40 µM
# SapM [5] = molecular target: T1, SapM; test: Type of inhibition of SapM, Lineweaver-Burk plots; assay type: biochemical
# Source text: To determine the type of inhibition different inhibitor concentrations were selected to yield around 30% and 75% inhibition for each concentration of pNPP. This ensures sufficient signal to obtain accurate data while allowing a significant inhibition effect. Velocity (V) was plotted as a function of pNPP concentration and fit in a Lineweaver–Burk plot (double-reciprocal) using GraphPad Prism 8.41. All assays were done in 96-well microplates and performed in triplicate in at least two independent experiments.
# SapM [6] = molecular target: T1, SapM; test: biochemical; assay type: biochemical
# M. bovis BCG wild-type = assay type: cell-based; conditions: Raw 264.7 macrophages; 40 µM; 72 h post-infection; vs DMSO
# MptpA, sequence (P9WIA1 whole entry): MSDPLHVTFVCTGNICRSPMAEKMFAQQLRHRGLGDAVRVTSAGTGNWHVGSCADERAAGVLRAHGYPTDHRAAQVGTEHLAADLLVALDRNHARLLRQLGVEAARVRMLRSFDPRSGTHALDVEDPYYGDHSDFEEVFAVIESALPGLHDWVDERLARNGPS
# MptpB, sequence (I6WXK4 whole entry, looked up): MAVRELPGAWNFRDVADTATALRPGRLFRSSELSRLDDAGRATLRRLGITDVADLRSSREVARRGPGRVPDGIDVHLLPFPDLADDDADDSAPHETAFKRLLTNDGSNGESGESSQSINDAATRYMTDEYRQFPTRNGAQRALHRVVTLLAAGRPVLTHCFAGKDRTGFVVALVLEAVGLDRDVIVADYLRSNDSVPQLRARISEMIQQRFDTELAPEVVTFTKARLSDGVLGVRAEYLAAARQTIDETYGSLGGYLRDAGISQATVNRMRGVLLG
# AcpA, sequence (A0Q436 21-514 limits assumed): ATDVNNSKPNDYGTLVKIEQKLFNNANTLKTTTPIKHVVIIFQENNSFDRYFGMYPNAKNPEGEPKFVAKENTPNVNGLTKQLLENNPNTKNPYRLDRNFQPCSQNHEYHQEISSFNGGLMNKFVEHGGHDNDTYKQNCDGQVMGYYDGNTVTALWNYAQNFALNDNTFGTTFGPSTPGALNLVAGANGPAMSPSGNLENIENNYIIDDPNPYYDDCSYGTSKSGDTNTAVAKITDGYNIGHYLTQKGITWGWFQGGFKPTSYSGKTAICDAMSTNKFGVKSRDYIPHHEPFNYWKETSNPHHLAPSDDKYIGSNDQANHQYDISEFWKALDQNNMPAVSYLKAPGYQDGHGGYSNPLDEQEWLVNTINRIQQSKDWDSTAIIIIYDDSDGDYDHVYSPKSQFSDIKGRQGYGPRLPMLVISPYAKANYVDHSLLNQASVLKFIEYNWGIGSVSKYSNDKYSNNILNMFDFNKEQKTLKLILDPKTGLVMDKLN
smiles,measurement,setting,value
"N#CC(C#N)=C(N)/C(C#N)=C/c1cc(O)c(O)c(O)c1 [Compound 1, Tyrphostin 51]",IC50,MptpA,19.8 ± 1 µM
same,IC50,MptpB,> 100 µM
same,acellular growth of F. tularensis,F. tularensis,does not affect acellular growth
same,concentration at which compound precipitates,[1],≥ 2000 µM
same,inhibition at 1000 µM,AcpA,~30%
same,viability at 24 h,[2],> 70%
same,Mtb intracellular burden vs DMSO control,Mtb H37Rv strain,significant (****p < 0.0001) reduction
same,reduction of F. tularensis intracellular burden,[3],55%
same,binding to SapM by MST,SapM [4],confirmed
same,EC50,"SapM [4]; Bivalent fit EC50 (1), MST titration, tighter binding mode",0.52 µM
same,intracellular burden of ΔsapM,M. bovis BCG ΔsapM,did not further reduce the intracellular burden
same,mechanism of inhibition of SapM,SapM [5],uncompetitive inhibitors
same,remaining activity at 100 µM,"SapM [6]; 0.5 h, compounds at 100 µM, relative to pNPP DMSO control, read-out: %SA (percentage specific activity of SapM)",0%
same,effect on SapM enzyme activity,SapM [6]; compounds at 100 µM,completely abolished the enzymatic activity; also recorded: abolished enzyme activity completely
same,IC50,"SapM [6]; pNPP assay, dose-response",6.3 ± 1 µM
same,intracellular burden of wild-type M. bovis BCG,M. bovis BCG wild-type,reduced the intracellular burden
